Several values for one entry are separate records, joined by “and”; a condition that tells them apart may be missing. Identical values can stand only once. Toxic doses and inconclusive results are not listed. No stated cut-off is given here; in the data, active means T/C of 150% or more; inactive means T/C below 125%.
Tested on: L1210 leukemia ip in BDF1 mice, survival T/C
Assay: NCI In Vivo Anticancer Drug Screen. Data for tumor model L1210 Leukemia (intraperitoneal) in B6D2F1 (BDF1) mice
Conditions: endpoint: mean survival time, higher = longer survival
Outline: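 Value reflects the ratio of survival in compound-treated mice to survival in vehicle-treated controls, with both groups carrying the same transplanted tumor.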

[1] = dose: 100.0 mg/kg/injection, schedule: Q01DX001 (ip), vehicle: carboxymethylcellulose (CMC)
[2] = dose: 100.0 mg/kg/injection, schedule: Q01DX009 (ip), vehicle: carboxymethylcellulose (CMC)
[3] = dose: 100.0 mg/kg/injection, schedule: Q04DX002 (ip), vehicle: Klucel (hydroxypropylcellulose) (HPC)
[4] = dose: 100.0 mg/kg/injection, schedule: Q04DX002 (ip), vehicle: carboxymethylcellulose (CMC)
[5] = dose: 200.0 mg/kg/injection, schedule: Q01DX001 (ip), vehicle: carboxymethylcellulose (CMC)
[6] = dose: 200.0 mg/kg/injection, schedule: Q01DX009 (ip), vehicle: carboxymethylcellulose (CMC)
[7] = dose: 200.0 mg/kg/injection, schedule: Q04DX002 (ip), vehicle: Klucel (hydroxypropylcellulose) (HPC)
[8] = dose: 200.0 mg/kg/injection, schedule: Q04DX002 (ip), vehicle: carboxymethylcellulose (CMC)
[9] = dose: 400.0 mg/kg/injection, schedule: Q01DX001 (ip), vehicle: carboxymethylcellulose (CMC)
[10] = dose: 400.0 mg/kg/injection, schedule: Q04DX002 (ip), vehicle: Klucel (hydroxypropylcellulose) (HPC)
[11] = dose: 400.0 mg/kg/injection, schedule: Q04DX002 (ip), vehicle: carboxymethylcellulose (CMC)
[12] = dose: 50.0 mg/kg/injection, schedule: Q01DX001 (ip), vehicle: carboxymethylcellulose (CMC)
[13] = dose: 25.0 mg/kg/injection, schedule: Q01DX009 (ip), vehicle: saline with Tween-80
[14] = dose: 50.0 mg/kg/injection, schedule: Q01DX009 (ip), vehicle: saline with Tween-80
[15] = dose: 100.0 mg/kg/injection, schedule: Q01DX009 (ip), vehicle: saline with Tween-80
[16] = dose: 100.0 mg/kg/injection, schedule: Q01DX009 (ip), vehicle: Klucel (hydroxypropylcellulose) (HPC)
[17] = dose: 100.0 mg/kg/injection, schedule: Q04DX003 (ip), vehicle: Klucel (hydroxypropylcellulose) (HPC)
[18] = dose: 200.0 mg/kg/injection, schedule: Q01DX009 (ip), vehicle: Klucel (hydroxypropylcellulose) (HPC)
[19] = dose: 200.0 mg/kg/injection, schedule: Q04DX003 (ip), vehicle: Klucel (hydroxypropylcellulose) (HPC)
[20] = dose: 400.0 mg/kg/injection, schedule: Q01DX009 (ip), vehicle: Klucel (hydroxypropylcellulose) (HPC)
[21] = dose: 200.0 mg/kg/injection, schedule: Q01DX009 (ip), vehicle: saline with Tween-80
[22] = dose: 400.0 mg/kg/injection, schedule: Q01DX009 (ip), vehicle: saline with Tween-80
[23] = dose: 100.0 mg/kg/injection, schedule: Q04DX003 (ip), vehicle: carboxymethylcellulose (CMC)
[24] = dose: 200.0 mg/kg/injection, schedule: Q04DX003 (ip), vehicle: carboxymethylcellulose (CMC)
[25] = dose: 400.0 mg/kg/injection, schedule: Q04DX003 (ip), vehicle: carboxymethylcellulose (CMC)

Measured: T/C

COP(=O)(O)CC(C)=O (tested in a mixture with another compound)
inactive: dose: 100.0 mg/kg/injection, schedule: Q04DX002 (ip), vehicle: saline 101 % of control | dose: 200.0 mg/kg/injection, schedule: Q04DX002 (ip), vehicle: saline 101 % of control | dose: 400.0 mg/kg/injection, schedule: Q04DX002 (ip), vehicle: saline 101 % of control

Cc1cc(Cl)ccc1OC(=O)Nc1ccc(Cl)cc1
inactive: [1] 103 % of control | [2] 95 % of control and 101 % of control | [3] 98 % of control | [4] 96 % of control and 90 % of control | [5] 111 % of control | [6] 97 % of control and 111 % of control | [7] 92 % of control | [8] 94 % of control and 97 % of control | [9] 98 % of control | dose: 400.0 mg/kg/injection, schedule: Q01DX009 (ip), vehicle: carboxymethylcellulose (CMC) 97 % of control and 86 % of control | [10] 106 % of control | [11] 94 % of control and 90 % of control

CC(C)(O)c1cnnn1CCC[CH2][Pb]([c]1ccccc1)([c]1ccccc1)[c]1ccccc1
inactive: [12] 102 % of control | [1] 105 % of control | [5] 102 % of control | [9] 96 % of control

CCN(CC)CCCCCCn1c2ccccc2c2c(C)c3cnccc3c(C)c21
inactive: [13] 108 % of control | [14] 102 % of control | [15] 105 % of control

CN1C(=O)C(C)(C)C(=O)C1(C)C
inactive: dose: 200.0 mg/kg/injection, schedule: Q01DX001 (ip), vehicle: saline 100 % of control | dose: 400.0 mg/kg/injection, schedule: Q01DX001 (ip), vehicle: saline 117 % of control

CCOC(=O)CCC1C(C#N)C2(Cl)C(Cl)=C(Cl)C1(Cl)C2(Cl)Cl (stereo unspecified)
inactive: [16] 98 % of control | [17] 93 % of control | [18] 98 % of control | [19] 93 % of control | [20] 96 % of control | dose: 400.0 mg/kg/injection, schedule: Q04DX003 (ip), vehicle: Klucel (hydroxypropylcellulose) (HPC) 92 % of control

CN1CCN(CCNC(c2ccccc2)C(O)c2ccccc2)CC1 (stereo unspecified)
inactive: [17] 97 % of control

CC(=O)C1(C)Nc2cccc3cccc(c23)N1
inactive: [15] 97 % of control | [21] 106 % of control | [22] 96 % of control

CCCC(C(=O)OCC)C1=NC(C)(C)CC(C)O1 (stereo unspecified)
inactive: dose: 100.0 mg/kg/injection, schedule: Q01DX009 (ip), vehicle: alcohol 102 % of control | dose: 200.0 mg/kg/injection, schedule: Q01DX009 (ip), vehicle: alcohol 105 % of control | dose: 400.0 mg/kg/injection, schedule: Q01DX009 (ip), vehicle: alcohol 105 % of control

O=[N+]([O-])c1ccc(/C=C\c2ccncc2)cc1
inactive: [1] 101 % of control | [2] 100 % of control | [4] 103 % of control and 108 % of control | [23] 100 % of control | [5] 105 % of control | [6] 98 % of control | [8] 100 % of control | [24] 115 % of control | [9] 95 % of control | [11] 100 % of control | [25] 104 % of control

CSc1ccc(C(=O)CCl)c(C)c1
inactive: [12] 94 % of control

O=C(O)c1ccccc1SSc1ccccc1C(=O)O
inactive: [12] 100 % of control | [1] 100 % of control | [5] 96 % of control | [9] 103 % of control

O=C(O)CCCCCN1C(=O)C2OC3C(=O)N(CCCCCC(=O)O)C(=O)C3C2C1=O (stereo unspecified)
inactive: [23] 95 % of control | [24] 95 % of control | [25] 97 % of control

COc1ccc(CC(N)C(=O)OC(C)C)cc1N(CCCl)CCCl (stereo unspecified)
inactive: dose: 1.5 mg/kg/injection, schedule: Q01DX001 (ip), vehicle: saline 108 % of control | dose: 3.0 mg/kg/injection, schedule: Q01DX001 (ip), vehicle: saline 113 % of control | dose: 6.0 mg/kg/injection, schedule: Q01DX001 (ip), vehicle: saline 97 % of control

CC(C)=CC[Se]c1ncnc2c1ncn2C1OC(CO)C(O)C1O (stereo unspecified)
inactive: dose: 12.5 mg/kg/injection, schedule: Q01DX005 (ip), vehicle: saline 91 % of control | dose: 25.0 mg/kg/injection, schedule: Q01DX005 (ip), vehicle: saline 91 % of control | dose: 50.0 mg/kg/injection, schedule: Q01DX005 (ip), vehicle: saline 87 % of control

CC(C)c1ccc(/C=N\NC(=O)N/N=C/c2ccc(C(C)C)cc2)cc1
inactive: [17] 93 % of control | [19] 88 % of control

C(=C1\CCc2cc3ccccc3nc21)/c1ccccc1
inactive: [14] 98 % of control | [15] 95 % of control | [21] 88 % of control

CCC/C(=N\NC(=O)c1ccccc1OC)c1ccccc1
inactive: [14] 105 % of control | [15] 97 % of control | [21] 105 % of control

NC(=Nc1ccc(N)cc1)c1ccc(C(N)=Nc2ccc(N)cc2)cc1
inactive: dose: 2.5 mg/kg/injection, schedule: Q01DX015 (ip), vehicle: water 98 % of control | dose: 5.0 mg/kg/injection, schedule: Q01DX015 (ip), vehicle: water 100 % of control | dose: 10.0 mg/kg/injection, schedule: Q01DX015 (ip), vehicle: water 114 % of control | dose: 20.0 mg/kg/injection, schedule: Q01DX015 (ip), vehicle: water 100 % of control | dose: 36.7 mg/kg/injection, schedule: Q01DX015 (ip), vehicle: water 109 % of control | dose: 73.5 mg/kg/injection, schedule: Q01DX015 (ip), vehicle: water 105 % of control

CC1CCC(C)C1NC1=NCCO1 (stereo unspecified)
inactive: dose: 6.25 mg/kg/injection, schedule: Q01DX009 (ip), vehicle: saline with Tween-80 90 % of control | dose: 12.5 mg/kg/injection, schedule: Q01DX009 (ip), vehicle: saline with Tween-80 95 % of control | [13] 90 % of control | dose: 25.0 mg/kg/injection, schedule: Q04DX003 (ip), vehicle: saline with Tween-80 93 % of control | dose: 50.0 mg/kg/injection, schedule: Q04DX003 (ip), vehicle: saline with Tween-80 93 % of control | dose: 100.0 mg/kg/injection, schedule: Q04DX003 (ip), vehicle: saline with Tween-80 87 % of control

CCc1ccccc1N/N=C(\Cl)C(C)=O
inactive: dose: 6.25 mg/kg/injection, schedule: Q01DX009 (ip), vehicle: saline 106 % of control | dose: 12.5 mg/kg/injection, schedule: Q01DX009 (ip), vehicle: saline 106 % of control | dose: 25.0 mg/kg/injection, schedule: Q01DX009 (ip), vehicle: saline 95 % of control

CC(C)(C)C(CCC(=O)O)CC(=O)O (stereo unspecified)
inactive: [21] 90 % of control | [22] 89 % of control

Cc1cnc(N)c([N+](=O)[O-])c1
inactive: dose: 100.0 mg/kg/injection, schedule: Q01DX005 (ip), vehicle: Klucel (hydroxypropylcellulose) (HPC) 94 % of control | [16] 97 % of control | [3] 96 % of control | dose: 200.0 mg/kg/injection, schedule: Q01DX005 (ip), vehicle: Klucel (hydroxypropylcellulose) (HPC) 94 % of control | [18] 97 % of control | [7] 100 % of control | dose: 400.0 mg/kg/injection, schedule: Q01DX005 (ip), vehicle: Klucel (hydroxypropylcellulose) (HPC) 94 % of control | [20] 91 % of control | [10] 93 % of control

Reference: PubChem BioAssay AID248 (DTP/NCI, 2004)
